Laboratory results taken from US7256187B2, “Rifamycin C-11 oxime derivatives effective against drug-resistant microbes” (Cumbre Pharmaceuticals Inc., priority 2004, dated 2007).
Converted amounts (≈) assume the structure as drawn.

Columns and labels:
Assay type in all cases: cell-based
[1] = tested on: Streptococcus pneumoniae ATCC6303; assay: MIC, microbroth dilution; conditions: Streptococcus pneumoniae ATCC6303, rifS; read-out: Antimicrobial activity (MIC)
[2] = tested on: Staphylococcus aureus ATCC29213; assay: MIC, microbroth dilution; conditions: Staphylococcus aureus ATCC29213, rifS; read-out: Antimicrobial activity (MIC)
[3] = tested on: Mycobacterium smegmatis ATCC700084; assay: MIC, microbroth dilution; conditions: Mycolicibacterium smegmatis; Mycobacterium smegmatis ATCC700084, rifS; read-out: Antimicrobial activity (MIC)
[4] = tested on: Enterococcus faecalis ATCC29212; assay: MIC, microbroth dilution; conditions: Enterococcus faecalis ATCC29212, rifS; read-out: Antimicrobial activity (MIC)
[5] = tested on: Escherichia coli ATCC25922; assay: MIC, microbroth dilution; conditions: Escherichia coli ATCC25922, rifS; read-out: Antimicrobial activity (MIC)
[6] = tested on: Staphylococcus aureus EN1252a gyrA^S84L grlA^S80F; assay: microbe, parasite or virus in culture; conditions: Staphylococcus aureus EN1252a gyrA^S84L grlA^S80F, cipR; read-out: Antimicrobial activity (MIC)
Method: (§1) Representative compounds were assayed for antimicrobial activity as follows: Minimum Inhibitory Concentrations (“MICs”) were determined by the microbroth dilution method as per NCCLS guidelines (National Committee for Clinical Laboratory Standards. 2000. Methods for dilution antimicrobial susceptibility tests for bacteria that grow aerobically, 5th ed. M7-A5. National Committee for Clinical Laboratory Standards, Wayne, Pa.), except that all growth incubations were conducted at 37° C. Bacterial cultures were tested in the following bacteriological media: S. aureus, S. epidermidis, and E. coli in Cation-Adjusted Mueller-Hinton Broth, S. pneumoniae in THY Broth supplemented with 1 mg/mL catalase under 5% CO2 atmosphere, S. pyogenes in THY Broth, E. faecalis in BHI Broth, H. influenzae in BHI Broth supplemented with 0.75 μL of 1 mg/mL NAD and 150 μL of 1 mg/ml hematin per 5 mL, and M. smegmatis in Middlebrook Broth plus ADC Enrichment.
(§2) S. aureus ATCC 29213 RpoB^H418Y is a rifampin-resistant strain with a mutation in the RpoB gene of RNA polymerase. […] S. aureus EN1252a gyrA^S84L grlA^S80F is a quinolone-resistant strain due to double gene mutations of DNA gyrase and topoisomerase IV.

[7] = tested on: Staphylococcus aureus ATCC29213 rpoB^D417Y; assay: microbe, parasite or virus in culture; conditions: Staphylococcus aureus ATCC29213 rpoB^D417Y, rifR; read-out: Antimicrobial activity (MIC)
Method: as §1, §2

[8] = tested on: Staphylococcus aureus ATCC29213 rpoB^H418Y; assay: microbe, parasite or virus in culture; conditions: Staphylococcus aureus ATCC29213 rpoB^H418Y, rifR; read-out: Antimicrobial activity (MIC)
Method: as §1, §2

[9] = tested on: Haemophilus influenzae ATCC10211; assay: MIC, microbroth dilution; conditions: Haemophilus influenzae ATCC10211, rifS; read-out: Antimicrobial activity (MIC)
[10] = tested on: Staphylococcus epidermidis ATCC12228; assay: MIC, microbroth dilution; conditions: Staphylococcus epidermidis ATCC12228, rifS; read-out: Antimicrobial activity (MIC)
[11] = tested on: Streptococcus pyogenes ATCC19615; assay: MIC, microbroth dilution; conditions: Streptococcus pyogenes ATCC19615, rifS; read-out: Antimicrobial activity (MIC)

For CO[C@H]1/C=C/O[C@@]2(C)Oc3c(C)c(O)c4c(c3/C2=N/OCCN2CCOCC2)C(=O)C=C(NC(=O)/C(C)=C\C=C\[C@H](C)[C@H](O)[C@@H](C)[C@@H](O)[C@@H](C)[C@H](OC(C)=O)[C@@H]1C)C4=O [Example 24], the MIC [1] was 0.0002 to 0.125 µg/mL (≈ 0.000243 to 0.152 µM), the MIC [2] was 0.004 to 0.5 µg/mL (≈ 0.00485 to 0.607 µM) and the MIC [3] was 0.5 to 64 µg/mL (≈ 0.607 to 77.7 µM). For the same compound, the MIC [4] was 2 to 32 µg/mL (≈ 2.43 to 38.8 µM), the MIC [5] was 0.125 to 8 µg/mL (≈ 0.152 to 9.71 µM) and the MIC [6] was 0.004 to 0.5 µg/mL (≈ 0.00485 to 0.607 µM). For the same compound, the MIC [7] was 0.25 to 32 µg/mL (≈ 0.303 to 38.8 µM), the MIC [8] was 0.125 to 16 µg/mL (≈ 0.152 to 19.4 µM) and the MIC [9] was 0.03 to 2 µg/mL (≈ 0.0364 to 2.43 µM). The MIC [10] was 0.0005 to 0.063 µg/mL (≈ 0.000607 to 0.0765 µM) and the MIC [11] was 0.0005 to 0.063 µg/mL (≈ 0.000607 to 0.0765 µM).
CO[C@H]1/C=C/O[C@@]2(C)Oc3c(C)c(O)c4c(c3/C2=N/OCCN2CCN(Cc3ccccc3)CC2)C(=O)C=C(NC(=O)/C(C)=C\C=C\[C@H](C)[C@H](O)[C@@H](C)[C@@H](O)[C@@H](C)[C@H](OC(C)=O)[C@@H]1C)C4=O [Example 25, 11-Deoxy-11-[2-(4-benzylpiperazin-1-yl)ethoxyimino]rifamycin S] was tested, and the MIC [1] was 0.0002 to 0.125 µg/mL (≈ 0.000219 to 0.137 µM), the MIC [2] was 0.004 to 0.5 µg/mL (≈ 0.00438 to 0.548 µM) and the MIC [3] was 0.5 to 64 µg/mL (≈ 0.548 to 70.1 µM). For the same compound, the MIC [4] was 2 to 32 µg/mL (≈ 2.19 to 35 µM), the MIC [5] was 0.125 to 8 µg/mL (≈ 0.137 to 8.76 µM) and the MIC [6] was 0.004 to 0.5 µg/mL (≈ 0.00438 to 0.548 µM). The MIC [7] was 0.25 to 32 µg/mL (≈ 0.274 to 35 µM), the MIC [8] was 0.125 to 16 µg/mL (≈ 0.137 to 17.5 µM) and the MIC [9] was 0.03 to 2 µg/mL (≈ 0.0329 to 2.19 µM). For the same compound, the MIC [10] was 0.0005 to 0.063 µg/mL (≈ 0.000548 to 0.069 µM) and the MIC [11] was 0.0005 to 0.063 µg/mL (≈ 0.000548 to 0.069 µM).
CO[C@H]1/C=C/O[C@@]2(C)Oc3c(C)c(O)c4c(c3/C2=N/OCCN2CCN(c3ccccc3O)CC2)C(=O)C=C(NC(=O)/C(C)=C\C=C\[C@H](C)[C@H](O)[C@@H](C)[C@@H](O)[C@@H](C)[C@H](OC(C)=O)[C@@H]1C)C4=O [Example 26, 11-Deoxy-11-{2-[4-(2-hydroxy-phenyl)piperazin-1-yl]ethoxyimino}rifamycin S] was tested, and the MIC [1] was 0.0002 to 0.125 µg/mL (≈ 0.000219 to 0.137 µM), the MIC [2] was 0.004 to 0.5 µg/mL (≈ 0.00437 to 0.546 µM) and the MIC [3] was 0.5 to 64 µg/mL (≈ 0.546 to 69.9 µM). For the same compound, the MIC [4] was 2 to 32 µg/mL (≈ 2.19 to 35 µM), the MIC [5] was 0.125 to 8 µg/mL (≈ 0.137 to 8.74 µM) and the MIC [6] was 0.004 to 0.5 µg/mL (≈ 0.00437 to 0.546 µM). For the same compound, the MIC [7] was 0.25 to 32 µg/mL (≈ 0.273 to 35 µM), the MIC [8] was 0.125 to 16 µg/mL (≈ 0.137 to 17.5 µM) and the MIC [9] was 0.03 to 2 µg/mL (≈ 0.0328 to 2.19 µM). It also gave an MIC [10] of 0.0005 to 0.063 µg/mL (≈ 0.000546 to 0.0688 µM) and an MIC [11] of 0.0005 to 0.063 µg/mL (≈ 0.000546 to 0.0688 µM).
In the case of CO[C@H]1/C=C/O[C@@]2(C)Oc3c(C)c(O)c4c(c3/C2=N/O)C(=O)C(CO)=C(NC(=O)/C(C)=C\C=C\[C@H](C)[C@H](O)[C@@H](C)[C@@H](O)[C@@H](C)[C@H](OC(C)=O)[C@@H]1C)C4=O [Example 27], the MIC [1] is reported as 0.0002 to 0.125 µg/mL (≈ 0.00027 to 0.169 µM), the MIC [2] is reported as 0.004 to 0.5 µg/mL (≈ 0.0054 to 0.675 µM) and the MIC [3] is reported as 0.5 to 64 µg/mL (≈ 0.675 to 86.4 µM). For the same compound, the MIC [4] was 2 to 32 µg/mL (≈ 2.7 to 43.2 µM), the MIC [5] was 0.125 to 8 µg/mL (≈ 0.169 to 10.8 µM) and the MIC [6] was 0.004 to 0.5 µg/mL (≈ 0.0054 to 0.675 µM). For the same compound, the MIC [7] was 0.25 to 32 µg/mL (≈ 0.337 to 43.2 µM), the MIC [8] was 0.125 to 16 µg/mL (≈ 0.169 to 21.6 µM) and the MIC [9] was 0.03 to 2 µg/mL (≈ 0.0405 to 2.7 µM). The MIC [10] was 0.0005 to 0.063 µg/mL (≈ 0.000675 to 0.085 µM) and the MIC [11] was 0.0005 to 0.063 µg/mL (≈ 0.000675 to 0.085 µM).
For CO[C@H]1/C=C/O[C@@]2(C)Oc3c(C)c(O)c4c(c3/C2=N/OCC(=O)O)C(=O)C(N2CCOCC2)=C(NC(=O)/C(C)=C\C=C\[C@H](C)[C@H](O)[C@@H](C)[C@@H](O)[C@@H](C)[C@H](OC(C)=O)[C@@H]1C)C4=O [Example 28, 11-Deoxy-3-(morpholin-4-yl)-11-(4-carboxymethoxyimino)-rifamycin S], the MIC [1] was 0.0002 to 0.125 µg/mL (≈ 0.000234 to 0.146 µM), the MIC [2] was 0.004 to 0.5 µg/mL (≈ 0.00468 to 0.586 µM) and the MIC [3] was 0.5 to 64 µg/mL (≈ 0.586 to 74.9 µM). The MIC [4] was 2 to 32 µg/mL (≈ 2.34 to 37.5 µM), the MIC [5] was 0.125 to 8 µg/mL (≈ 0.146 to 9.37 µM) and the MIC [6] was 0.004 to 0.5 µg/mL (≈ 0.00468 to 0.586 µM). For the same compound, the MIC [7] was 0.25 to 32 µg/mL (≈ 0.293 to 37.5 µM), the MIC [8] was 0.125 to 16 µg/mL (≈ 0.146 to 18.7 µM) and the MIC [9] was 0.03 to 2 µg/mL (≈ 0.0351 to 2.34 µM). For the same compound, the MIC [10] was 0.0005 to 0.063 µg/mL (≈ 0.000586 to 0.0738 µM) and the MIC [11] was 0.0005 to 0.063 µg/mL (≈ 0.000586 to 0.0738 µM).
With CO[C@H]1/C=C/O[C@@]2(C)Oc3c(C)c(O)c4c(c3/C2=N/OCC(=O)N2CCN(c3cc5c(cc3F)c(=O)c(C(=O)O)cn5C3CC3)CC2)C(=O)C(N2CCOCC2)=C(NC(=O)/C(C)=C\C=C\[C@H](C)[C@H](O)[C@@H](C)[C@@H](O)[C@@H](C)[C@H](OC(C)=O)[C@@H]1C)C4=O [Example 29, 11-Deoxy-3-(morpholin-4-yl)-11-{2-oxo-2-[4-(3-carboxy-1-cyclopropl-6-fluoro-4-oxo-1,4-dihydroquinolin-7-yl)piperazin-1-yl]ethoxyimino}rifamycin S] the MIC [1] was 0.0002 to 0.125 µg/mL (≈ 0.000171 to 0.107 µM), the MIC [2] was 0.004 to 0.5 µg/mL (≈ 0.00343 to 0.428 µM) and the MIC [3] was 0.5 to 64 µg/mL (≈ 0.428 to 54.8 µM). For the same compound, the MIC [4] was 2 to 32 µg/mL (≈ 1.71 to 27.4 µM), the MIC [5] was 0.125 to 8 µg/mL (≈ 0.107 to 6.85 µM) and the MIC [6] was 0.004 to 0.5 µg/mL (≈ 0.00343 to 0.428 µM). For the same compound, the MIC [7] was 0.25 to 32 µg/mL (≈ 0.214 to 27.4 µM), the MIC [8] was 0.125 to 16 µg/mL (≈ 0.107 to 13.7 µM) and the MIC [9] was 0.03 to 2 µg/mL (≈ 0.0257 to 1.71 µM). It also gave an MIC [10] of 0.0005 to 0.063 µg/mL (≈ 0.000428 to 0.054 µM) and an MIC [11] of 0.0005 to 0.063 µg/mL (≈ 0.000428 to 0.054 µM).
